Source: ChEMBL document CHEMBL5038653, “A Brain-Penetrant and Bioavailable Pyrazolopiperazine BACE1 Inhibitor Elicits Sustained Reduction of Amyloid β In Vivo” (ACS Med Chem Lett, 2022)
Values after ≈ are worked out from the molar mass of the structure shown.

Key:
[1] = Toxicity in Beagle dog assessed as clinical pathological changes at 0.31 to 5 mg/kg, po; format: organism-based, Canis lupus familiaris; conditions: in vivo, dose 0.31-5 mg/kg
[2] = In vivo inhibition of CD-1 mouse assessed as remaining amyloid beta (1 to 42 residues) levels in CSF at 10 mg/kg, po measured at 4 hrs; format: functional
[3] = In vivo inhibition of BACE1 in Beagle dog assessed as reduction of amyloid beta (1 to 42 residues) levels in CSF administered orally by electrochemiluminescence assay; format: functional, organism-based, Canis lupus familiaris
[4] = Oral bioavailability in rat at 2.3 mg/kg; format: ADME, organism-based; conditions: in vivo
[5] = Cardiotoxicity in guinea pig assessed as effect on heart rate upto 5 mg/kg, iv administered over 10 mins at 30 mins interval by ECG analysis; format: toxicity, organism-based, Cavia porcellus; conditions: in vivo
hERG (KCNH2) = hERG (KCNH2) (Homo sapiens, UniProt Q12809); experiment: Inhibition of hERG expressed in HEK293 cells at 3 uM at -80 mV holding potential by automated patch-clamp method; format: toxicity, cell-based; conditions: HEK293 cells expressing hERG
[6] = Tmax in dog at 2.5 mg/kg, po; format: ADME, organism-based, Canis lupus familiaris; conditions: in vivo
Cathepsin D = Cathepsin D (Homo sapiens, UniProt P07339); experiment: Inhibition of Cathepsin D (unknown origin)
[7] = Volume of distribution at steady state in mouse at 0.28 mg/kg, iv; format: ADME, organism-based; conditions: in vivo, read-out: Vdss
[8] = In vivo inhibition of CD-1 mouse assessed as remaining amyloid beta (1 to 42 residues) levels in CSF at 10 mg/kg, po measured at 1 hr; format: functional
[9] = Tmax in mouse at 2.1 mg/kg, po; format: ADME, organism-based; conditions: in vivo
[10] = Drug level in CD-1 mouse brain at 10 mg/kg, po measured at 1 hr post dose; format: ADME, organism-based; conditions: read-out: Ct
[11] = Cmax in mouse at 2.1 mg/kg, po; format: ADME, organism-based; design: route oral, dose 2.1 mg/kg; conditions: in vivo
[12] = In vivo inhibition of BACE1 in Beagle dog assessed as reduction of amyloid beta (1 to 42 residues) levels in CSF at 2.5 mg/kg, po measured after 8 hrs by electrochemiluminescence assay; format: functional, Canis lupus familiaris; design: scale not given: the % may be the effect or the level left
[13] = AUC (0 to last) in mouse at 2.1 mg/kg, po; format: ADME, organism-based; design: route oral, time 0 - last, dose 2.1 mg/kg; conditions: in vivo
Cytochrome P450 2D6 = Cytochrome P450 2D6 (Homo sapiens, UniProt P10635); experiment: Inhibition of human CYP2D6 by fluorescence plate reader analysis; format: ADME
Cytochrome P450 1A2 = target: T1, Cytochrome P450 1A2 (Homo sapiens, UniProt P05177); experiment: Inhibition of human CYP1A2 by fluorescence plate reader analysis; format: ADME
T1 sequence (P05177 whole entry): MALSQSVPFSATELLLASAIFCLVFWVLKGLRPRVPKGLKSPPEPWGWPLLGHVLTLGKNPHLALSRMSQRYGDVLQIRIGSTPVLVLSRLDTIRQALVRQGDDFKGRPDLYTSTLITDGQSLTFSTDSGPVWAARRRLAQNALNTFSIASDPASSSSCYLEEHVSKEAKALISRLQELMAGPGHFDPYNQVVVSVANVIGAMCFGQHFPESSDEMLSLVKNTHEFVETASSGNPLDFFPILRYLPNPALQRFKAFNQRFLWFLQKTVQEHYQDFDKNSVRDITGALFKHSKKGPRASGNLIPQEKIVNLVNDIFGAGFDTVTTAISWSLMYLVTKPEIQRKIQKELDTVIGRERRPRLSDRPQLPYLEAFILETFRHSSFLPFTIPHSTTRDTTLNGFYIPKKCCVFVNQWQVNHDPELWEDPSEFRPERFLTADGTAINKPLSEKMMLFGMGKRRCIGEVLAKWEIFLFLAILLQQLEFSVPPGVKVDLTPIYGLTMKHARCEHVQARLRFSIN

[14] = Metabolic stability in mouse liver microsomes assessed as metabolite formation after 15 mins in presence of NADPH by LC-MS analysis; format: ADME, Microsome; conditions: 0.25 h
Beta-secretase 2 = target: T2, Beta-secretase 2 (Homo sapiens, UniProt Q9Y5Z0); experiment: Inhibition of BACE2 (unknown origin)
T2 sequence (Q9Y5Z0 whole entry): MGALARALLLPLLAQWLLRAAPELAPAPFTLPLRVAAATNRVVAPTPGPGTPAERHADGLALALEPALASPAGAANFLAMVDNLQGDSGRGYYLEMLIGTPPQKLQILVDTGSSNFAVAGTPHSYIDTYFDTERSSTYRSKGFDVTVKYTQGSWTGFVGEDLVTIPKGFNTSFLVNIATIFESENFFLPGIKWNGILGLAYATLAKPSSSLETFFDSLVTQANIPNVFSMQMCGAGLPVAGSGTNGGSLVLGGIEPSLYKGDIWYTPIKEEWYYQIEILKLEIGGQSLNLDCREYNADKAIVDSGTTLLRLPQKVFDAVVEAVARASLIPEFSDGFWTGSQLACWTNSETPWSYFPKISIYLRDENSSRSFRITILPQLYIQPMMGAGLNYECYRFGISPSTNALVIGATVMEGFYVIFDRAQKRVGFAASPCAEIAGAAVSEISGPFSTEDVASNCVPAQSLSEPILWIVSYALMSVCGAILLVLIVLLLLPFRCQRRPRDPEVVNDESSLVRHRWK

[15] = Clearance in dog at 0.25 mg/kg, iv to liver blood flow; format: ADME, organism-based, Canis lupus familiaris; conditions: in vivo
[16] = Free drug concentration in human plasma measured after 4.5 hrs by HPLC-MS/MS method; format: ADME, cell-free
[17] = Ratio of apparent permeability across apical to basolateral side in the presence of P-gp inhibitor elacridar to the absence of P-gp inhibitor elacridar in dog MDCK-MDR1 cells at 5 uM incubated for 120 mins; format: ADME, cell-based, Canis lupus familiaris; conditions: 2 h
[18] = AUC (0 to infinity) in mouse at 0.28 mg/kg, iv; format: ADME, organism-based; design: time infinity, route intravenous, dose 0.28 mg/kg; conditions: in vivo
[19] = Toxicity in guinea pig assessed as effect on body temperature at 0.63 to 5 mg/kg, iv administered over 10 mins at 30 mins interval; format: organism-based, Cavia porcellus; conditions: in vivo, dose 0.63-5 mg/kg
[20] = Drug level in CD-1 mouse brain at 10 mg/kg, po measured at 2 hr post dose; format: ADME, organism-based; conditions: read-out: Ct
[21] = Oral bioavailability in mouse at 2.1 mg/kg; format: ADME, organism-based; conditions: in vivo
[22] = Half life in rat at 0.25 mg/kg, iv; format: ADME, organism-based; conditions: in vivo
[23] = Ratio of unbound drug concentration in brain to blood in CD-1 mouse at 10 mg/kg, po measured at 1 hr post dose; format: ADME, organism-based
Cytochrome P450 3A4 = Cytochrome P450 3A4 (Homo sapiens, UniProt P08684); experiment: Inhibition of human CYP3A4 using midazolam as substrate by fluorescence plate reader analysis; format: ADME
Sequence of Cytochrome P450 3A4 (P08684 whole entry): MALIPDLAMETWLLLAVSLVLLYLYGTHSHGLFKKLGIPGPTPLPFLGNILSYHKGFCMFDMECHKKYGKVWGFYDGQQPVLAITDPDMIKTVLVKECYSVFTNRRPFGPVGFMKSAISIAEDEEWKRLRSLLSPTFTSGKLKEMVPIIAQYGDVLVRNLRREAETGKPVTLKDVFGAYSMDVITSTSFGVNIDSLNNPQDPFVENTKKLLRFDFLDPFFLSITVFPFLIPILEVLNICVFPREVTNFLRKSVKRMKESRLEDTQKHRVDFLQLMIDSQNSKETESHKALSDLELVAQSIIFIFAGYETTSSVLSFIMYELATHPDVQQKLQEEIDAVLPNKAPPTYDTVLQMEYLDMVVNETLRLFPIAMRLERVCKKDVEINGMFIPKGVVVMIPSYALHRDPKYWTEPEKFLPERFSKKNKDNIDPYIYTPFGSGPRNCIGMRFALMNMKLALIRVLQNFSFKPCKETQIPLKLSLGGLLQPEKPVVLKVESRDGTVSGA

Sequence of Cathepsin D (P07339 65-162 limits assumed): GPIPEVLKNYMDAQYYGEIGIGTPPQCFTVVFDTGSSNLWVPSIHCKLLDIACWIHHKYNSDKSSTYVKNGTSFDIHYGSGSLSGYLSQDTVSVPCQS
Sequence of Cathepsin D (P07339 169-412 limits assumed): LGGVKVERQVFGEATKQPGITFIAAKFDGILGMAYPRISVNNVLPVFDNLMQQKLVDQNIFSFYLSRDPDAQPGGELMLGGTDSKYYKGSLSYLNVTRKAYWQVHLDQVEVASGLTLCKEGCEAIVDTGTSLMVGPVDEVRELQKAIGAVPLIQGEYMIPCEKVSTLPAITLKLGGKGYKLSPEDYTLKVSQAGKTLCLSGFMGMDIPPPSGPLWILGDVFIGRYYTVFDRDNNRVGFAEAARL
Sequence of hERG (KCNH2) (Q12809 whole entry): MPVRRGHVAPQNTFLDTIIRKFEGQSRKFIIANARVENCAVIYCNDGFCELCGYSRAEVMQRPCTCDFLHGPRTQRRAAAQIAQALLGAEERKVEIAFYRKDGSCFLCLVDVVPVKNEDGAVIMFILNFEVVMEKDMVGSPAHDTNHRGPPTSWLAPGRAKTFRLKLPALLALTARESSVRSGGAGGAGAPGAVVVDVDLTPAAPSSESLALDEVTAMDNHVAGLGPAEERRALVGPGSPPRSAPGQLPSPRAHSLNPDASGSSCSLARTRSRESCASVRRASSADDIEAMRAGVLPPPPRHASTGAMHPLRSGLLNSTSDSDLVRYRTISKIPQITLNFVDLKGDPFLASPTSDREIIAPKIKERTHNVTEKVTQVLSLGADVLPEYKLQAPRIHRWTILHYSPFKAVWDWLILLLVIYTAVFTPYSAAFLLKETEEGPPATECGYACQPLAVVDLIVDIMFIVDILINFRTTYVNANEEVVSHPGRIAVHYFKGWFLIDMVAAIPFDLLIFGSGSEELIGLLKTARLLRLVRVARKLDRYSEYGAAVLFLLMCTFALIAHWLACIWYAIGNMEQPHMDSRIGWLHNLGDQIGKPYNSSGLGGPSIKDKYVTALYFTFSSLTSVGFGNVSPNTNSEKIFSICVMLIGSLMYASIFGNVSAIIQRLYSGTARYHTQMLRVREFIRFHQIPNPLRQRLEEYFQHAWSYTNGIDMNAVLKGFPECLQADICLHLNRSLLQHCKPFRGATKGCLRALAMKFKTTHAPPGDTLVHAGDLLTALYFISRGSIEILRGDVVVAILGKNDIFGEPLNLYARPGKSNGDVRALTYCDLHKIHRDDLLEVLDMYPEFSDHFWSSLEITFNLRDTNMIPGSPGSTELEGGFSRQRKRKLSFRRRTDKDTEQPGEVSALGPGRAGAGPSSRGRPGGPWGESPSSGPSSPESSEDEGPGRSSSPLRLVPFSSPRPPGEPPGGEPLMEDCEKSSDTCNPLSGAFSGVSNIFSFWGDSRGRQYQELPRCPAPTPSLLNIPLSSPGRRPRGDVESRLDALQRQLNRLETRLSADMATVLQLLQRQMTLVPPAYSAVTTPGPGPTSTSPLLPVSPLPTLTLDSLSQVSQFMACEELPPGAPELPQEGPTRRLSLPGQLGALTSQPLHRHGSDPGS
Sequence of Cytochrome P450 2D6 (P10635 whole entry): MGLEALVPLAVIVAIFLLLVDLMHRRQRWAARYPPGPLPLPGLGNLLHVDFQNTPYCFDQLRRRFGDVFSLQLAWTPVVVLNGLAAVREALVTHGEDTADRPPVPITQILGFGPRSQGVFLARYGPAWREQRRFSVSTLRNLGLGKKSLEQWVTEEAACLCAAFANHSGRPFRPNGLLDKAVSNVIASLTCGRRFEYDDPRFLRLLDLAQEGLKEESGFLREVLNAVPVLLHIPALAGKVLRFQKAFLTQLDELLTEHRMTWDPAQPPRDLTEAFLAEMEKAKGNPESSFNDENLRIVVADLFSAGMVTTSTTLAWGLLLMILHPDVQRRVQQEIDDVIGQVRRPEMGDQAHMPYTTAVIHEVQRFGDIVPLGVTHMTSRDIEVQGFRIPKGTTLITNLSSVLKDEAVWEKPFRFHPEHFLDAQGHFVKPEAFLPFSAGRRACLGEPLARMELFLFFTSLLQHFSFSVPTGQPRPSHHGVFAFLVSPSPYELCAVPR

COc1cnc(C(=O)Nc2ccc(F)c([C@]3(C)Cn4nc(C#N)cc4C(N)=N3)c2)cn1
Activity [1]: Non-Toxic | Activity [2]: 45% | EC90 [3]: 44 ng/mL (≈ 0.105 µM) | EC50 ([3]; Canis lupus familiaris, Beagle): 7.5 ng/mL (≈ 0.0178 µM) | bioavailability [4]: 59% | Activity [5]: Non-Toxic | inhibition at 3 µM (hERG (KCNH2)): 48% | Tmax [6]: 2.3 h | IC50 (Cathepsin D): > 100 µM | Vd [7]: 5.3 L/kg | Activity [8]: 74% | Tmax [9]: 2.3 h | concentration at 1 h [10]: 621 ng/g | Cmax [11]: 160 ng/mL | Activity [12]: 85% | AUClast [13]: 1910 ng·h/mL | IC50 (Cytochrome P450 2D6): > 30 µM | IC50 (Cytochrome P450 1A2): > 30 µM | Drug metabolism [14]: 23% | IC50 (Beta-secretase 2): 0.0115 µM | CL [15]: 20% | fraction unbound at 4.5 h [16]: 0.28 | Ratio [17]: 1.56 | AUC [18]: 206 ng·h/mL | Activity [19]: Non-Toxic | concentration at 2 h [20]: 888 ng/g | bioavailability [21]: > 100% | half-life [22]: 4.3 h | Kp uu at 1 h [23]: 0.3 | IC50 (Cytochrome P450 3A4): > 30 µM
